Assay results published in US20170209434A1, “PROTEIN PHOSPHATASE 2A INHIBITORS FOR TREATING MYELODYSPLASTIC SYNDROMES” (priority 2014, published 2017).

Columns and labels:
protein phosphatase 1 = details: cited from earlier work
protein phosphatase 2A = protein phosphatase 2A (Homo sapiens, UniProt P67775); details: cited from earlier work
Namalwa cells [1] = assay: Cell cycle analysis of Namalwa cells treated with LB-100; type: cell-based; details: for G1 / G2/M / S / Percent G1: 24 hours
Method: FIG. 1 is a bar graph showing percent of Namalwa cells in G1 arrest 24 hours after treatment with 0.1 μM, 1.0 μM or 10 μM LB-100 dissolved in DMSO (grey) or MSG (black) compared to control and vehicle.
FIG. 2 is a bar graph showing percent of Namalwa cells in G1 arrest 24 hours after treatment with 0.1 μM, 1.0 μM or 10 μM LB-100 compared to control.

HL60 cells = assay: MTT assay, HL60 cell proliferation; type: cell-based; details: 72 hours, significant difference at 1 μM
Method: (§1) FIG. 7A is a graph showing proliferation of HL60 cells 72 hours after treatment with 0.001 μM, 0.01 μM, 0.1 μM, 1.0 μM, 10 μM, or 100 μM LB-100 (grey) or 0.001 μM, 0.01 μM, 0.1 μM, 1.0 μM, 10 μM, or 100 μM lenalidomide (black), compared to control or vehicle. FIGS. 7B to 7C are graphs showing proliferation of Namalwa cells 72 hours after treatment with 0.001 μM, 0.01 μM, 0.1 μM, 1.0 μM, 10 μM, or 100 μM LB-100 (♦), 0.001 μM, 0.01 μM, 0.1 μM, 1.0 μM, 10 μM, or 100 μM lenalidomide (▪), or 0.001 μM, 0.01 μM, 0.1 μM, 1.0 μM, 10 μM, or 100 μM cantharidin (▴), compared to control or vehicle.
(§2) HL60 cells and U937 cells were compared (FIGS. 8A and 8B).

Namalwa cells [2] = assay: Apoptosis of Namalwa cells; type: cell-based; details: for Percent Apoptosis: dissolved in MSG
Method: FIG. 3 is a bar graph showing percentage of Namalwa cells undergoing apoptosis after treatment with 0.1 μM, 1.0 μM or 10 μM LB-100 dissolved in DMSO (grey) or MSG (black) compared to control and vehicle.
FIGS. 4A to 4D are a series of flow cytometry plots showing percentage of Namalwa cells undergoing apoptosis after treatment with control (FIG. 4A), 0.1 μM (FIG. 4B), 1.0 μM (FIG. 4C), or 10 μM (FIG. 4D) LB-100.

del(5q) patient BM MNCs = assay: Apoptosis of del(5q) patient BM MNCs; type: cell-based
Method: FIG. 6 is a bar graph showing percentage of primary BM MNCs from a Del(5q) patient undergoing apoptosis after treatment with 0.1 μM, 1.0 μM, or 10 μM lenalidomide (grey) or 0.1 μM, 1.0 μM, or 10 μM LB-100 (black), compared to a control.

del(5q) MDS = assay: Additional studies of efficacy in del(5q) MDS (Example 3); type: in vivo; details: subject afflicted with del(5q) MDS
Method: (§3) Additional studies, similar to the aforementioned Phase I design, are conducted to evaluate the efficacy of LB-100, alone or in combination with lenalidomide, in patients with del(5q) MDS or non-del(5q) MDS.
An amount of LB-100 is administered to a subject afflicted with del(5q) MDS. […] An amount of LB-100 in combination with lenalidomide is administered to a subject afflicted with del(5q) MDS.

[3] = test system: Non-del(5q) patient BM MNCs; assay: Apoptosis of non-del(5q) patient BM MNCs; type: cell-based; details: FIG. 5, 0.1-10 μM
Namalwa cells [4] = assay: MTT assay, Namalwa cell proliferation; type: cell-based; details: 72 hours
Method: as §1, §2

non-del(5q) MDS = assay: Additional studies of efficacy in non-del(5q) MDS (Example 3); type: in vivo; details: subject afflicted with non-del(5q) MDS
Method: as §3
An amount of LB-100 is administered to a subject afflicted with non-del(5q) MDS. […] An amount of LB-100 in combination with lenalidomide is administered to a subject afflicted with non-del(5q) MDS.

[5] = test system: MDS that is resistant to lenalidomide; assay: Additional studies of efficacy in lenalidomide-resistant MDS (Example 3); type: in vivo
Method: as §3

del(5q) MDS patients = details: cited from earlier work
non-del (5q) MDS = details: cited from earlier work

Sequence of protein phosphatase 2A (P67775 whole entry): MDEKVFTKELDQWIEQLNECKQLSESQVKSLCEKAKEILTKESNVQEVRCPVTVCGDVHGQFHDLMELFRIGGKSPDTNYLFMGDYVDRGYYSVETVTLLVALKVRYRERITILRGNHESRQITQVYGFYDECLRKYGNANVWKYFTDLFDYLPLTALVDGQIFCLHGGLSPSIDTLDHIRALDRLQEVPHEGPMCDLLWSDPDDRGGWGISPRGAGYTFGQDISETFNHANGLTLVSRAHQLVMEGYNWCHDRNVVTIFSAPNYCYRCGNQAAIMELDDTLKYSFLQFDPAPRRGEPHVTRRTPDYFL

C=C1[C@@H](O)[C@@H]2O[C@]3(CC[C@H](/C=C/[C@@H](C)[C@@H]4CC(C)=C[C@@]5(O[C@H](C[C@@](C)(O)C(=O)O)CC[C@H]5O)O4)O3)CC[C@H]2O[C@@H]1[C@@H](O)C[C@H](C)[C@H]1O[C@@]2(CCCCO2)CC[C@H]1C [Okadaic acid, 9,10-Deepithio-9,10-didehydroacanthifolicin]
IC50 (protein phosphatase 1): 3 to 15 nM
IC50 (protein phosphatase 2A): 0.1 to 1 nM
Selectivity over PP2B, PP2C and a range of other phosphatases (in words) (protein phosphatase 2A): highly selective

C[C@@]12C(=O)OC(=O)[C@]1(C)[C@H]1CC[C@@H]2O1 [cantharidin]
PP2A inhibition (in words) (protein phosphatase 2A): potent and selective inhibitor of PP2A

CN1CCN(C(=O)C2C(C(=O)O)[C@H]3CC[C@@H]2O3)CC1 (stereo partly drawn) [LB100]
G1 (Namalwa cells [1]; 0.1 μM, dissolved in DMSO): 17.73%
G2/M (Namalwa cells [1]; 0.1 μM, dissolved in DMSO): 16.51
S (Namalwa cells [1]; 0.1 μM, dissolved in DMSO): 65.76
G1 (Namalwa cells [1]; 0.1 uM, dissolved in MSG): 18.69%
G2/M (Namalwa cells [1]; 0.1 uM, dissolved in MSG): 17.93
S (Namalwa cells [1]; 0.1 uM, dissolved in MSG): 63.37
G1 (Namalwa cells [1]; 1.0 μM, dissolved in DMSO): 18.38%
G2/M (Namalwa cells [1]; 1.0 μM, dissolved in DMSO): 18.22
S (Namalwa cells [1]; 1.0 μM, dissolved in DMSO): 63.41
G1 (Namalwa cells [1]; 1.0 uM, dissolved in MSG): 41.48%
G2/M (Namalwa cells [1]; 1.0 uM, dissolved in MSG): 6.96
S (Namalwa cells [1]; 1.0 uM, dissolved in MSG): 51.56
G1 (Namalwa cells [1]; 10 μM, dissolved in DMSO): 28.97%
G2/M (Namalwa cells [1]; 10 μM, dissolved in DMSO): 8.9
S (Namalwa cells [1]; 10 μM, dissolved in DMSO): 62.13
G1 (Namalwa cells [1]; 10 uM, dissolved in MSG): 46.34%
G2/M (Namalwa cells [1]; 10 uM, dissolved in MSG): 8.5
S (Namalwa cells [1]; 10 uM, dissolved in MSG): 45.15
G2/M (Namalwa cells [1]; Table 2, 0.1 μM): 12.06%
Percent G1 (Namalwa cells [1]; Table 2, 0.1 μM): 24.01%
S (Namalwa cells [1]; Table 2, 0.1 μM): 63.93%
G2/M (Namalwa cells [1]; Table 2, 1.0 μM): 20.8%
Percent G1 (Namalwa cells [1]; Table 2, 1.0 μM): 31.35%
S (Namalwa cells [1]; Table 2, 1.0 μM): 47.85%
G2/M (Namalwa cells [1]; Table 2, 10 μM): 6.13%
Percent G1 (Namalwa cells [1]; Table 2, 10 μM): 51.18%
S (Namalwa cells [1]; Table 2, 10 μM): 42.69%
G1 arrest, dose dependence (in words) (Namalwa cells [1]; Table 2 and FIG. 2, 0.1-10 μM): led to G1 arrest in a dose-dependent fashion
G1 arrest (in words) (Namalwa cells [1]; at 10 μM in DMSO): led to G1 arrest
G1 arrest (in words) (Namalwa cells [1]; at 1 and 10 μM in MSG): led to G1 arrest
Proliferation in comparison to treatment with lenalidomide (in words) (HL60 cells): significant decreased proliferation
Percent Apoptosis (Namalwa cells [2]; 0.1 μM): 6.18%
Percent Apoptosis (Namalwa cells [2]; 1.0 μM): 6.5%
Percent Apoptosis (Namalwa cells [2]; 10 μM): 55.8%
Apoptosis (in words) (Namalwa cells [2]; at 10 μM when dissolved in MSG): led to apoptosis
Apoptosis, dose dependence (in words) (del(5q) patient BM MNCs; FIG. 6, 0.1-10 μM): induced apoptosis in a dose dependent fashion
Apoptosis (in words) (del(5q) patient BM MNCs; at 1 μM): mild increase in apoptosis
Cytotoxicity compared with lenalidomide (in words) (del(5q) patient BM MNCs; at 10 μM): more cytotoxic than lenalidomide
Efficacy in treating del(5q) MDS (in words) (del(5q) MDS): effective to treat
Apoptosis (in words) [3]: did not lead to apoptosis
PP2A inhibition (in words) (protein phosphatase 2A): greater potency than lenalidomide
Proliferation in comparison to control (in words) (Namalwa cells [4]): significant decrease in proliferation
Efficacy in treating non-del(5q) MDS (in words) (non-del(5q) MDS): effective to treat
Efficacy in treating MDS resistant to lenalidomide (in words) [5]: effective to treat

Nc1cccc2c1CN(C1CCC(=O)NC1=O)C2=O (stereo not drawn) [Lenalidomide, lenalidomide]
transfusion independence (TI), % of patients (del(5q) MDS patients; lower risk MDS patients with del(5q)): 67%
duration of response, median (del(5q) MDS patients; patients with del5q MDS): 2.5 years
transfusion independence (TI), % of patients (non-del (5q) MDS): 26%
